The values below come from patent publication US20210363254A1, “PHARMACEUTICAL COMBINATIONS” (Novartis AG, priority 2018, published 2021).

Series [1] is classed as in vivo, human. As to the method:
Pharmacokinetic data have been evaluated throughout the course of the dose escalation. Two HDM201 drug variants have been evaluated during the course of the study (refer to the protocol for further details). […] Furthermore, an integrated analysis of all available HDM201 concentrations was conducted using a population approach. The PK of HDM201 was best described by a 1-compartment PK model with a delayed zero- and first-order absorption process, and a linear clearance. Body weight was identified as a statistically significant covariate on apparent central volume of distribution (Vc/F), in which Vc/F increased with increasing body weight.
To further support the preferred dose for HDM201, compartmental PK modeling was used to estimate the individual average concentration per cycle for the 9 patients treated at 120 mg on regimen 1B (FIG. 15). For the majority of patients (7 out of 9), the estimated average drug concentrations per cycle were near or above the most conservative average tumor stasis concentration of ˜41 ng/mL per cycle determined from PKPD modeling of preclinical data (human SJSA-1 xenograft rat model).
Compartmental population PK modeling of NVP-HDM201 was used to estimate the individual average plasma concentration for Cycle 1 and to allow comparison with preclinical average concentration for tumor stasis derived by PK/PD tumor growth modeling. […] The dashed line at concentration of ≈19 ng/mL represents average tumor stasis determined from PK/PD modeling of preclinical data from a liposarcoma (HSAX2655) patient-derived xenograft rat model.

A further series concerns Colon 26 tumors. The series is described as follows: Anti-tumor activity in Colon 26 syngeneic tumor model (8020 Colon 26-XEF). Format: in vivo, mouse. The method, then:
Time to endpoint. Balb/c mice were implanted with 2×10^5 Colon 26 cells subcutaneously. Mice were treated with HDM201 at 40 mg/kg×3 for every 3h po on Days 12, 19 and 26 post cell implant, and the aPD-1 antibody at 5 mg/kg ip on days 12, 15, 19, and 22. End point was defined as tumor volume equal or greater than 1000 mm^3. Log Rank, p<0.05.
FIG. 25: Individual Tumor Growth Curves (8020 Colon 26-XEF) Individual tumor growth curves. Balb/c mice were implanted with 2×10^5 Colon 26 cells subcutaneously. Mice were treated with HDM201 at 40 mg/kg×3 for every 3h po on Days 12, 19 and 26 post cell implant, and the aPD-1 antibody at 5 mg/kg ip on days 12, 15, 19, and 22. End point was defined as tumor volume equal to or greater than 1000 mm^3. The horizontal dashed line indicates the tumor endpoint tumor size (1000 mm^3).
Colon 26 cells were harvested at 80-95% confluence, washed, and re-suspended in cold PBS at a concentration of 2×10^6 cells/ml. Finally, 0.2×10^6 cells in a total volume of 100 μL were implanted subcutaneously (sc) into the upper right flank of naive Balb/c mice.
For Study 8020 Colon 26-XEF, animals were randomized and enrolled onto the study when tumor volumes reached a range of 27-60 mm^3 on day 10 post cell implantation. All treatments were initiated three days later on day 13. For the PD studies, animals were randomized when the mean tumor volume reached 100˜120 mm^3.
The designs of studies 7628 Colon 26-XPD, 8063 Colon 26-XPD and 8020 Colon 26-XEF including dose and schedule for treatment groups are summarized in Tables Ex3.2 to Ex3.4. Animals were weighed on dosing day(s) and the dosing volume was adjusted to body weight to 10 ml/kg. Tumor dimensions and body weights were recorded at the time of randomization and twice weekly thereafter for the study duration. The following data were collected after each day of data collection: incidence of mortality, individual and group average body weights, and individual and group average tumor volume.
Percent treatment/control (% T/C) and percent regression (% Reg) values were calculated using the following formulas, respectively:
% Reg=100×ΔT/Tinitial if ΔT<0 […]
A Kaplan-Meier survival analysis was performed to compare differences in time to endpoint (TTE). Mice were scored as achieving tumor endpoint once tumor volume exceeded 1000 mm^3 and scored as dead (“1”). […]
The anti-tumor activity of HDM201 with aPD1 antibody targeting the PD-1/PD-L1 axis was explored in the Colon 26 murine syngeneic model (8020 Colon 26-XEF). […] Tumor growth delay was assessed as median time to endpoint using the Kaplan-Meier analysis (GraphPad v7.0).

The molecule `COc1ncc(-c2nc3c(n2C(C)C)[C@H](c2ccc(Cl)cc2)N(c2cc(Cl)cn(C)c2=O)C3=O)c(OC)n1` [HDM201, (S)-5-(5-Chloro-1-methyl-2-oxo-1,2-dihydro-pyridin-3-yl)-6-(4-chloro-phenyl)-2-(2,4-dimethoxy-pyrimidin-5-yl)-1-isopropyl-5,6-dihydro-1H-pyrrolo[3,4-d]imidazol-4-one] yielded a steady-state reached in series [1] (daily dosing) of at most 8 days. Further, in series [1] (dose range 2 to 350 mg), the “median time to reach maximum plasma concentrations (Tmax)” value was 2 to 5.8 h. Further, the “accumulation upon daily dosing” value in series [1] (human, in vivo) is reported as “limited accumulation”. The “patients with estimated average drug concentration per cycle near or above ~41 ng/mL” value in series [1] (regimen 1B 120 mg, compartmental PK modeling) is on record as 7 out of 9. Besides, in the series with Colon 26 tumors (10 mice per group), the “animals with partial response” value was 1/10. Besides, the “complete tumor regression / complete responses (CR), animals” value in the series on Colon 26 tumors (10 mice per group, HDM201 40 mg/kg 3×q3h po weekly, aPD1 Ab 5 mg/kg ip) is given as “no CR”. The tumor growth result in the series with Colon 26 tumors (HDM201 40 mg/kg) is given as “inhibited tumor growth”. Besides, the “median time to endpoint (TV≥1000 mm^3), Kaplan-Meier” value with Colon 26 tumors (HDM201 40 mg/kg 3×q3h po weekly, aPD1 Ab 5 mg/kg ip, vehicle 23 days) was determined as 31.5 days.
